Ki data for one molecule are collected here from ChEMBL document CHEMBL3217715, “Are pyridazines privileged structures?” (Medchemcomm, 2011).

The target of the experiment is D(2) dopamine receptor (Homo sapiens, UniProt P14416). Briefly: Antagonist activity at dopamine D2 receptor (unknown origin).
Sequence of D(2) dopamine receptor (P14416 whole entry): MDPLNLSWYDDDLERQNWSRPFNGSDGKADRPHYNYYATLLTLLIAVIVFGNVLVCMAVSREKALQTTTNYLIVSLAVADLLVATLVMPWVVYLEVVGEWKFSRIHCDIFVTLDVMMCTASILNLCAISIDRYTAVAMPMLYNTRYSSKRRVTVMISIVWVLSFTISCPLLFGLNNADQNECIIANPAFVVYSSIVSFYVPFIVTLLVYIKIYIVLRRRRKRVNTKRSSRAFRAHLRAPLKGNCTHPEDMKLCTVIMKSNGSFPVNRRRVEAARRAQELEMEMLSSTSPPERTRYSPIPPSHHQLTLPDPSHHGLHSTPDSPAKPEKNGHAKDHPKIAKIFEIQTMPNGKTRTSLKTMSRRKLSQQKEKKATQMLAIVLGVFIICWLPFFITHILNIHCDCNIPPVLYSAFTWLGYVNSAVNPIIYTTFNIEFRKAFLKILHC

As usually defined, the Ki is a measure of affinity in units of concentration, obtained from inhibition or displacement. High values mean weaker binding, low ones tighter binding. For `CCN1CCCC1CNc1nncc2ccc(OC)c(OC)c12` (stereo unspecified), the affinity corresponds to a Ki of 3.9 nM.
